Reference: US10426755B2, “Methods for inhibiting cancer cells” (Chang Gung Memorial Hospital, Chiayi, priority 2015, dated 2019)
“Also recorded” adds a separate entry of the source.

How the values were obtained:
Format in all cases: cell-based
[1] = test system: prostate cancer cells (metastatic DU145, PC3, 22RV1); assay: Cell invasion assay (transwell, Matrigel), prostate cancer cells; settings: 5 or 10 μM DT, 3 days, vs control vehicle; FIG. 12 (a), (c), (e)
Procedure: (§1) An in vitro evaluation of the effect of DT on lung cancer cells (A549 and chemotherapy resistant/metastatic H460), prostate cancer cells (metastatic DU145) and colorectal cancer cells (chemotherapy resistant HCT116) invasion and migration was performed, using cell invasion assay and cell migration assay.
(§2) Cell Invasion Assay: cells of interest were treated with a control vehicle, 5 or 10 μM of DT and incubated for 3 days. 1×10^5 cells were placed into the upper chamber of transwell plates (8 μm) with membranes pre-coated with 20% Matrigel and the bottom chamber contained 600 μL media supplemented with 10% fetal bovine serum (FBS). The cells migrated to the bottom of the chamber were fixed, stained and counted.

[2] = test system: tamoxifen-resistant MCF-7 breast cancer cells; assay: XTT proliferation assay, tamoxifen-resistant MCF-7; settings: 1-3 days, Panel (c) of FIG. 3
Procedure: (§3) The prostate cancer cells were plated at a density of 10^3 or 3×10^3 per well, in a 96-well plate, in a medium containing 10% Fetal bovine serum (FBS) (Gibco®, commercially available from Life Technologies, USA). Once the prostate cancer cells were attached to the culture dish, the 10% FBS medium was replaced with a second 10% FBS medium and each of the prostate cancer cell line was treated with 1, 5, and 10 μM of DT respectively for 1-2 days. The absorbance was measured using XTT assay kit (commercially available from Roche, Switzerland) at 492 nm using an ELISA reader (Bio-Rad Laboratories, USA).
(§4) An in vitro evaluation of the effect of DT on the breast cancer cells was performed. The breast cancer cell lines, MDA-MB-231, MCF-7 and tamoxifen-resistant MCF-7 breast cancer cells were obtained from Bioresource Collection and Research Center, Taiwan. The breast cancer cells were cultured in Eagle's Minimum Essential Medium containing 10% charcoal-stripped fetal bovine serum and plated according to the steps in Example 1 and each of the breast cancer cell line was treated with 0 (control), 5, 10 and 20 μM of DT, respectively for 1-3 days. The absorbance was measured using XTT assay kit at 492 nm using an ELISA reader.

[3] = test system: prostate cancer cells (PC3, DU145 and 22RV1); assay: Prostate cancer cell invasion assay with DT-treated conditioned media; settings: 5-10 μM DT, 24 hours, results not shown
Procedure: as §2
As illustrated in Example 10, the production of CCL2 was inhibited by DT in both prostate cancer cells and macrophage, the effect of DT on monocyte/cancer cell co-culture and macrophage/cancer cell co-culture was examined using the invasion assay described in Example 9. • (a) THP1 monocytes, Raw264.7 macrophage, monocyte/prostate cancer co-culture and macrophage/prostate cancer co-culture were treated with a vehicle (DMSO), 5 or 10 μM DT for 24 hours, the cultured medium was collected and placed into the lower chamber of a transwell plate. • (b) Prostate cancer cells (PC3, DU145 and 22RV1) were placed in the cell invasion assay). The level of CCL2 in the invasion assay was measured by ELIZA method.

[4] = test system: CCL2 in THP1 monocytes; assay: CCL2 ELISA of culture medium, THP1 monocytes; settings: 5 or 10 μM DT, 24 hours, vs DMSO, FIG. 14 (b)
Procedure: It has been reported that increased CCL2 expression enhances cancer cell metastasis via macrophage recruitment. The effect of DT on CCL2 expression in RAW264.7 macrophages, THP1 monocytes and prostate cancer cells (metastatic DU145 and hormone therapy resistant and metastatic PC3) was examined by treating the cells with DMSO (control), 5 or 10 μM DT for 24 hours.
The culture medium was collected and the concentration of CCL2 was measured using ELISA assay.

[5] = test system: lung cancer cells (A549 and chemotherapy resistant/metastatic H460); assay: Cell invasion assay (transwell, Matrigel), lung cancer cells; settings: 5 or 10 μM DT, 3 days, vs control vehicle; FIG. 11
Procedure: as §1, §2

[6] = test system: breast cancer cell lines (MDA-MB-231, MCF-7 and tamoxifen-resistant MCF-7); assay: XTT proliferation assay, breast cancer cells; settings: 0, 5, 10 and 20 μM DT, 1-3 days, FIG. 3
Procedure: as §3, §4

[7] = test system: breast cancer cells (MCF-7, tamoxifen-resistant MCF7 and MDA MB-231); assay: Annexin V/PI flow cytometry apoptosis/necrosis, breast cancer cells; settings: 10 or 20 μM DT, 24-48 hours, vs PBS and control; time dependent; FIG. 8
Procedure: The effect of DT on metastatic prostate cancer cells (hormone therapy-resistant PC3, DU145 and LNCaP); lung cancer cells (A549 and chemotherapy-resistant/metastatic H460); and breast cancer cells (MCF-7, tamoxifen-resistant MCF7 and MDA MB-231) was assessed.
1×10^6 Cancer cells were seeded in a 100-mm plate and cultured overnight. The cancer cells were treated with phosphate buffered saline (PBS), a Dimethyl sulfoxide (DMSO) vehicle (CT), 10 or 20 μM of DT for 24-48 hours, then collected and washed with cold PBS. The supernatant was removed by centrifugation and resuspended in FITC Annexin V binding buffer and Propidium iodide (PI) (Annexin V-FITC Apoptosis Detection Kit, commercially available from Strong Biotech Corporation, Taiwan). The suspended cancer cells were stained at room temperature, in the dark for 15 min and analyzed by the BD FACSCanto™ flow cytometry (Becton Dickinson, USA). The amount of early apoptosis, late apoptosis, and necrosis was measured as the percentage of annexin-V positive/PI negative (Q4 in the FACS images), annexin-V positive/PI positive (Q2 in the FACS images), and annexin-V negative/PI positive cells (Q1 in the FACS images), respectively. Normal cells are in […] of the FACS images.

[8] = test system: lung cancer cell lines (A549 and chemotherapy-resistant/metastatic H460); assay: XTT proliferation assay, lung cancer cells; settings: 1-2 days, FIG. 2
Procedure: as §3, with “Laboratories, USA). An in vitro evaluation of the effect of DT, gemcitabine (a chemotherapeutic agent) and etoposide (a chemotherapeutic agent) on the lung cancer cells was performed. The lung cancer cell lines, chemotherapy-resistant/metastatic H460 lung cancer cells (with pleural metastasis) and A549 lung cancer cells, were purchased from Bioresource Collection and Research Center, Taiwan. […] The absorbance was measured using XTT assay kit at 492 nm using an ELISA reader.” for “Laboratories, USA).”

## Cc1cccc2c3c(ccc12)C(=O)C1=C(OCC1C)C3=O (stereo not drawn) [DT, dihydroisotanshinone I]
[1]
  prostate cancer cell motility (invasion assay): reduced the motility and migration of prostate cancer cells
[2]
  dose of DT required for inhibiting tamoxifen-resistant MCF-7 cells: > 1 µM
[3]; DT-treated macrophage medium
  migration of prostate cancer cells: significantly inhibit the migration of prostate cancer cells in a dose-dependent manner
[3]; DT-treated macrophage/prostate cancer co-culture medium
  migration of prostate cancer cells: significantly inhibit the migration of prostate cancer cells in a dose-dependent manner
[3]; DT-treated monocyte medium
  migration of prostate cancer cells: significantly inhibit the migration of prostate cancer cells in a dose-dependent manner
[3]; DT-treated monocyte/prostate cancer co-culture medium
  migration of prostate cancer cells: significantly inhibit the migration of prostate cancer cells in a dose-dependent manner
[4]
  production of CCL2 in THP1 monocytes: effectively inhibit the production of CCL2
[5]
  lung cancer cell motility (invasion assay): reduced metastatic lung cancer cell motility; also recorded: reduced the motility of lung cancer cells
[6]
  inhibition of breast cancer cells (proliferation): effective in inhibiting breast cancer cells, even for the tamoxifen-resistant MCF-7 breast cancer cells, in a dose dependent and time dependent fashion
[7]
  early apoptosis, late apoptosis and necrosis, breast cancer cells: more early apoptosis, late apoptosis and necrosis
[8]; 5, 10 and 20 μM DT, XTT
  inhibition of lung cancer cells (proliferation): inhibits the lung cancer cells in a dose dependent fashion
[8]; DT 5, 10, 20 μM, gemcitabine hydrochloride and etoposide 10, 20 μM, regardless of the dosage, also H460
  inhibition of lung cancer proliferation, DT compared with gemcitabine and etoposide: more effective than gemcitabine and etoposide in inhibiting lung cancer proliferation
